Laboratory results reported in US7148228B2, “Pyrazolopyrimidines and related analogs as HSP90-inhibitors” (Conforma Therapeutics Corporation, priority 2003, dated 2006).

How the values were obtained:
[1] = tested on: rHSP90 in the MCF7 cell lysates; experiment: Cell lysate binding assay (biotin-GM competition); settings: concentration for 50% inhibition of biotin-GM binding to rHSP90 in MCF7 cell lysates
Protocol: MCF7 breast carcinoma cell lysates were prepared by douncing in lysing buffer (20 mM HEPES, pH 7.3, 1 mM EDTA, 5 mM MgCl2, 100 mM KCl), and then incubated with or without test compound for 30 mins at 4° C., followed by incubation with biotin-GM linked to BioMag™ streptavidin magnetic beads (Qiagen) for 1 hr at 4° C. The tubes were placed on a magnetic rack, and the unbound supernatant removed. The magnetic beads were washed three times in lysis buffer and boiled for 5 mins at 95° C. in SDS-PAGE sample buffer. Samples were analyzed on SDS protein gels, and Western blots done for rHSP90. Bands in the Western Blots were quantitated using the Bio-rad Fluor-S MultiImager, and the % inhibition of binding of rHSP90 to the biotin-GM was calculated.
The IC50 reported is the concentration of test compound needed to achieve 50% inhibition of the biotin-GM binding to rHSP90 in the MCF7 cell lysates.

HER2/Neu protein = experiment: HER2 degradation assay; format: cell-based; settings: Homo sapiens; 50% degradation of HER2/Neu protein, MCF7 cells, 16 h incubation
Protocol: MCF7 breast carcinoma cells (ATCC) were grown in Dulbecco's modified Eagle's medium (DMEM) containing 10% fetal bovine serum (FBS) and 10 mM HEPES, and plated in 24 well plates (50% confluent). Twenty-four hrs later (cells are 65–70% confluent), test compounds were added and incubated overnight for 16 h. […] The wells were washed with 1 mL phosphate buffered saline (PBS), and 200 μL trypsin was added to each well. After trypsinization was complete, 50 μL of FBS was added to each well. Then 200 μL cells was transferred to 96 well plates. The cells were pipetted up and down to obtain a single cell suspension. The plates were centrifuged at 2,500 rpm for 1 min using a Sorvall Legend RT™ tabletop centrifuge (Kendro Laboratory Products, Asheville, N.C.). The cells were then washed once in PBS containing 0.2% BSA and 0.2% sodium azide (BA buffer). Phycoerythrin (PE) conjugated anti HER2/Neu antibody (Becton Dickinson, #340552), or PE conjugated anti-keyhole limpet hemacyanin [KLH] (Becton Dickinson, #340761) control antibody was added at a dilution of 1:20 and 1:40 respectively (final concentration was 1 μg/mL) and the cells were pipeted up and down to form a single cell suspension, and incubated for 15 mins. The cells were washed twice with 200 μL BA buffer, and resuspended in 200 μL BA buffer, and transferred to FACSCAN tubes with an additional 250 μL BA buffer. Samples were analyzed using a FACSCalibur™ flow cytometer (Becton Dickinson, San Jose, Calif.) equipped with Argon-ion laser that emits 15 mW of 488 nm light for excitation of the PE fluorochrome. 10,000 events were collected per sample. A fluorescence histogram was generated and the mean fluorescence intensity (MFI) of each sample was determined using Cellquest software. The background was defined as the MFI generated from cells incubated with control IgG-PE, and was subtracted from each sample stained with the HER2/Neu antibody. Cells incubated with DMSO was always done as untreated controls since the compounds were resuspended in DMSO. Percent degradation of HER2 was calculated as follows: % HER2 degraded=[(MFI untreated cells−MFI treated cells)/MFI untreated cell]×100
IC50 is defined as the concentration at which there was 50% degradation of the HER2/Neu protein.

[2] = tested on: MCF7 breast carcinoma cells; experiment: MTS assay; format: cell-based; settings: Homo sapiens, concentration giving 50% viable cell number
Protocol: MTS assays measures the cytotoxicity of geldanamycin derivatives. MTS (3-(4,5-dimethylthiazol-2-yl)-5-(3-carboxymethoxyphenyl)-2-(4-sulfophenyl)-2H-tetrazolium is a tetrazolium dye that is converted to a formazan product by dehydrogenase enzymes of metabolically active cells (Corey, A. et al. “Use of an aqueous soluble tetrazolium/formazan assay for cell growth assays in culture,” Cancer Commun. 1991, 3, 207–212). Cells were seeded in 96 well plates at 2000 cells/well and allowed to adhere overnight in Dulbecco's modified Eagle's medium supplemented with 10% fetal bovine serum. The final culture volume was 100 μl. Viable cell number was determined by using the Celltiter 96 AQueous Non-radioactive Cell Proliferation Assay (Promega, Madison Wis.). The MTS/PMS (phenazine methosulfate) solution was mixed at a ratio of 20:1, and 20 μL was added per well to 100 μl of culture medium. After 2–4 hours, the formation of the formazan product was measured at 490 nm absorbance using a multiwell plate spectrophotometer. Background was determined by measuring the Abs 490 nm of cell culture medium and MTS-PMS in the absence of cells and was subtracted from all values. Percent viable cells was calculated as follows: % viable cells=(Abs at 490 nm treated cells/Abs at 490 nm untreated cells)×100
The effect of selected compounds of the invention on MCF7 breast carcinoma cells according to the MTS assay is summarized in Table 2. IC50 was defined as the concentration of the compound which gave rise to 50% viable cell number.

SMILES	IC50 [1] [nM]	IC50 (HER2/Neu protein) [nM]	IC50 [2] [nM]
Cc1c[n+]([O-])c(Cn2nc(-c3ccccc3)c3c(Cl)nc(N)nc32)c(C)c1Cl [Example 35, 4-Chloro-1-(4-chloro-3,5-dimethyl-1-oxy-pyridin-2-ylmethyl)-3-phenyl-1H-pyrazolo[3,4-d]pyrimidin-6-ylamine]	80	20	1000
Cc1cnc(Cn2ncc3c(Cl)nc(N)nc32)c(C)c1Cl [Example 9, 4-Chloro-1-(4-chloro-3,5-dimethyl-pyridin-2-ylmethyl)-1H-pyrazolo[3,4-d]pyrimidin-6-ylamine]		90	300
CCc1nn(Cc2ncc(C)c(OC)c2C)c2nc(N)nc(Cl)c12 [Example 29, 4-Chloro-3-ethyl-1-(4-methoxy-3,5-dimethyl-pyridin-2-ylmethyl)-1H-pyrazolo[3,4-d]pyrimidin-6-ylamine]	100	850	1000
COc1c(C)cnc(Cn2nc(C)c3c(Cl)nc(N)nc32)c1C [Example 23, 4-Chloro-1-(4-methoxy-3,5-dimethyl-pyridin-2-ylmethyl)-3-methyl-1H-pyrazolo[3,4-d]pyrimidin-6-ylamine]		40	100
CCc1nn(Cc2ncc(C)c(Cl)c2C)c2nc(N)nc(Cl)c12 [Example 30, 4-Chloro-1-(4-chloro-3,5-dimethyl-pyridin-2-ylmethyl)-3-ethyl-1H-pyrazolo[3,4-d]pyrimidin-6-ylamine]		110	1000
Cc1cnc(Cn2nc(C)c3c(Cl)nc(N)nc32)c(C)c1Cl [Example 26, 4-Chloro-1-(4-chloro-3,5-dimethyl-pyridin-2-ylmethyl)-3-methyl-1H-pyrazolo[3,4-d]pyrimidin-6-ylamine]	90	50	
Cc1cnc(Cn2ncc3c(Cl)nc(N)nc32)c(C)c1Br [Example 14, 1-(4-Bromo-3,5-dimethyl-pyridin-2-ylmethyl)-4-chloro-1H-pyrazolo[3,4-d]pyrimidin-6-ylamine]	110	90	1000
Cc1c[n+]([O-])c(Cn2nc(C)c3c(Cl)nc(N)nc32)c(C)c1Br [Example 24, 1-(4-Bromo-3,5-dimethyl-1-oxy-pyridin-2-ylmethyl)-4-chloro-3-methyl-1H-pyrazolo[3,4-d]pyrimidin-6-ylamine]		30	1000
Cc1c[n+]([O-])c(Cn2ncc3c(Cl)nc(N)nc32)c(C)c1Br [Example 15, 1-(4-Bromo-3,5-dimethyl-1-oxy-pyridin-2-ylmethyl)-4-chloro-1H-pyrazolo[3,4-d]pyrimidin-6-ylamine]		900	
Cc1cnc(Cn2nc(-c3ccccc3)c3c(Cl)nc(N)nc32)c(C)c1Cl [Example 33, 4-Chloro-1-(4-chloro-3,5-dimethyl-pyridin-2-ylmethyl)-3-phenyl-1H-pyrazolo[3,4-d]pyrimidin-6-ylamine]		160	600
COc1c(C)c(Cl)nc(Cn2ncc3c(Cl)nc(N)nc32)c1C [Example 8, 4-Chloro-1-(6-chloro-4-methoxy-3,5-dimethyl-pyridin-2-ylmethyl)-1H-pyrazolo[3,4-d]pyrimidin-6-ylamine]		140	500
Cc1c[n+]([O-])c(Cn2nc(C)c3c(Cl)nc(N)nc32)c(C)c1Cl [Example 25, 4-Chloro-1-(4-chloro-3,5-dimethyl-1-oxy-pyridin-2-ylmethyl)-3-methyl-1H-pyrazolo[3,4-d]pyrimidin-6-ylamine]		30	300
COc1c(C)cnc(Cn2nc(C(C)C)c3c(Cl)nc(N)nc32)c1C [Example 31, 4-Chloro-3-isopropyl-1-(4-methoxy-3,5-dimethyl-pyridin-2-ylmethyl)-1H-pyrazolo[3,4-d]pyrimidin-6-ylamine]		50	300
Cc1cnc(Cn2nc(C)c3c(Cl)nc(N)nc32)c(C)c1Br [Example 28, 1-(4-Bromo-3,5-dimethyl-pyridin-2-ylmethyl)-4-chloro-3-methyl-1H-pyrazolo[3,4-d]pyrimidin-6-ylamine]		40	1000
COc1c(C)cnc(Cn2nc(-c3ccccc3)c3c(Cl)nc(N)nc32)c1C [Example 32, 4-Chloro-1-(4-methoxy-3,5-dimethyl-pyridin-2-ylmethyl)-3-phenyl-1H-pyrazolo[3,4-d]pyrimidin-6-ylamine]		40	80
COc1c(C)cnc(Cn2ncc3c(Cl)nc(N)nc32)c1C [Example 7, 4-Chloro-1-(4-methoxy-3,5-dimethyl-pyridin-2-ylmethyl)-1H-pyrazolo[3,4-d]pyrimidin-6-ylamine]	140	50	130
Cc1cnc(Cn2nc(-c3ccccc3)c3c(Cl)nc(N)nc32)c(C)c1Br [Example 34, 1-(4-Bromo-3,5-dimethyl-pyridin-2-ylmethyl)-4-chloro-3-phenyl-1H-pyrazolo[3,4-d]pyrimidin-6-ylamine]		120	1000
